Data: ChEMBL document CHEMBL1201862, “PubChem BioAssay data set” (2004)
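In this assay, cells in 96-well plates receive the compound at five concentrations for 48 hours. Endpoints are linearly interpolated between the surrounding concentrations. The concentration for 50% growth inhibition is given as GI50.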 Calls of active or inactive are those of the source. Cut-off read from the data, not from the text of the source: active = GI50 up to about 1.1 µM and inactive = higher.

Assays:
Experiment in all cases: growth of human tumour cells (NCI), 48 h
[1] = tested on: OVCAR-4
[2] = tested on: SF-268
[3] = tested on: A498
[4] = tested on: HOP-62
[5] = tested on: UACC-62
[6] = tested on: COLO 205
[7] = tested on: HL-60
[8] = tested on: SK-MEL-28
[9] = tested on: OVCAR-8
[10] = tested on: LOX IMVI
[11] = tested on: SN12C
[12] = tested on: NCI-H23
[13] = tested on: T47D
[14] = tested on: Hs-578T
[15] = tested on: MDA-MB-435
[16] = tested on: A549
[17] = tested on: OVCAR-3
[18] = tested on: KM12
[19] = tested on: IGROV-1
[20] = tested on: CCRF-CEM

| SMILES | GI50 [1] | GI50 [2] | GI50 [3] | GI50 [4] | GI50 [5] | GI50 [6] | GI50 [7] | GI50 [8] | GI50 [9] | GI50 [10] | GI50 [11] | GI50 [12] | GI50 [13] | GI50 [14] | GI50 [15] | GI50 [16] | GI50 [17] | GI50 [18] | GI50 [19] | GI50 [20] |
| --- | --- | --- | --- | --- | --- | --- | --- | --- | --- | --- | --- | --- | --- | --- | --- | --- | --- | --- | --- | --- |
| C[n+]1c2ccccc2n2c3ccccc3c(NCc3ccco3)c(C#N)c21 | 2.82 µM (inactive) | 2.42 µM (inactive) | 6.08 µM (inactive) | 1.46 µM (inactive) | 2.84 µM (inactive) | 1.67 µM (inactive) | 3.17 µM (inactive) | 1.99 µM (inactive) | 1.24 µM (inactive) | 1.05 µM (active) | 1.23 µM (inactive) | 1.46 µM (inactive) | 3.67 µM (inactive) | 2.96 µM (inactive) | 1.76 µM (inactive) | 3.15 µM (inactive) | 2.7 µM (inactive) | 2.79 µM (inactive) |  |  |
| COc1ccc(N2C(=O)C(=O)N(c3ccccc3[N+](=O)[O-])C2=S)cc1 | 18.9 µM (inactive) | 33.7 µM (inactive) | 27 µM (inactive) | 50 µM (inactive) | 17.5 µM (inactive) | 19.4 µM (inactive) | 46 µM (inactive) | 33 µM (inactive) | 21.1 µM (inactive) | 16.6 µM (inactive) | 37.4 µM (inactive) | 21 µM (inactive) | 22.6 µM (inactive) | 22.7 µM (inactive) | 27.4 µM (inactive) | 38.5 µM (inactive) |  | 22.3 µM (inactive) | 34.8 µM (inactive) | 81.7 µM (inactive) |
| Cc1ccc2c(=O)[nH]sc2c1 | 27.9 µM (inactive) | 19.9 µM (inactive) | 64.1 µM (inactive) | 19.5 µM (inactive) | 17.1 µM (inactive) | 3.82 µM (inactive) | 13.1 µM (inactive) | 17.9 µM (inactive) | 17.3 µM (inactive) | 16.1 µM (inactive) | 7.83 µM (inactive) | 17.7 µM (inactive) | 14.8 µM (inactive) | 21.5 µM (inactive) | 14.5 µM (inactive) | 19 µM (inactive) | 17.8 µM (inactive) |  | 19.7 µM (inactive) | 3.26 µM (inactive) |
| NCCCCNCCCN1CC1 | 0.205 µM (active) | 0.957 µM (active) | 0.319 µM (active) | 0.92 µM (active) | 5.18 µM (inactive) | 0.871 µM (active) | 0.436 µM (active) | 1.72 µM (inactive) | 0.883 µM (active) | 0.284 µM (active) | 1.19 µM (inactive) | 2.57 µM (inactive) | 0.354 µM (active) | 0.433 µM (active) | 1.15 µM (inactive) | 4.94 µM (inactive) | 0.619 µM (active) | 4.67 µM (inactive) | 2.77 µM (inactive) | 0.951 µM (active) |
| CC1=CC(=O)[C@@H](O)[C@]2(C)[C@H]3[C@@]4(O)OC[C@@]35[C@@H](C[C@@H]12)OC(=O)C(OC(=O)CC1=CCCC1)[C@H]5[C@@H](C)[C@H]4O (stereo partly specified) | 0.0527 µM (active) | 0.0345 µM (active) | 0.429 µM (active) | 0.024 µM (active) | 0.0383 µM (active) | 0.24 µM (active) | < 0.0168 µM (active) | 0.0204 µM (active) | 0.0279 µM (active) | < 0.0177 µM (active) | 0.0481 µM (active) | 0.0187 µM (active) | 0.0771 µM (active) | 0.0272 µM (active) | 0.0404 µM (active) | 0.28 µM (active) | 0.0239 µM (active) | 0.0256 µM (active) | 0.0188 µM (active) | 0.0197 µM (active) |
